Measurements: patent publication US4800194A, “Acylphosphorotriamides useful as lipid-altering agents” (priority 1986, dated 1989)

Tests used:
acetylcholinesterase = target: T1, acetylcholinesterase (Homo sapiens, UniProt P22303); test: Inhibition of acetylcholinesterase (AChE) activity of lysed human red blood cells (Test Method 1); format: biochemical; details: 60 min preincubation
T1 construct: The supernatant (lysed RBC's) was stored frozen; from tissue; host or cells: lysed human red blood cells (supernatant of hypotonic lysis)
Method: The following method was used to determine the relative inhibition of pseudocholinesterase and acetylcholinesterase by compounds of the present invention.
Lysed Red Blood Cells (RBC's) (Source of Acetylcholinesterase Enzyme)
Human blood which was collected in EDTA treated tubes was centrifuged at 1500×g for 10 min. at 4° C. One volume of chilled 0.9% saline solution was gently mixed with one volume of packed RBC's. One volume of this suspension was then washed three times with ten volumes of chilled 0.9% saline solution (4° C.). Each wash was centrifuged at 1500×g for 10 min. at 4° C. and supernatant was discarded. After the last wash the supernatant was replaced with deionized, distilled water (treated by Milli-Q apparatus, Millipore Corp., Bedford, MA) (4° C.). After 15 min. at 4° C. the suspension was centrifuged at 1500×g for 10 min. at 4° C. The supernatant (lysed RBC's) was stored frozen at -20° C. until use.
The buffer/chromogen solution was 0.25 mM 5,5'-dithiobis-[2-nitrobenzoic acid] (chromogen), 50 mM phosphate buffer, pH 7.2. In making up the buffer/chromogen solution and to keep it as colorless as possible, the phosphate buffer was first adjusted to pH 7.1 with NaOH; the chromogen was then added and dissolved; the pH was adjusted to 7.2; and the final volume was adjusted with addition of Milli-Q water. 5,5'-dithiobis-(2-nitrobenzoic acid) was obtained from Sigma Chemicals, St. Louis, MO.
The substrate solution for the pseudocholinesterase assay was 156 mM S-butyrylthiocholine iodide, and the substrate solution for the acetylcholinesterase assay was 156 mM S-acetylthiocholine iodide. Both substrate compounds were obtained from Sigma Chemicals.
Test Compound Stock Solutions
Solutions of all test compounds were made up at 2 μM, 20 μM, and 200 μM concentrations (in 0.9% saline solution) except as noted where lower concentrations were necessary because of decreased solubility of the compound in saline solution.
Acetylcholinesterase (AChE) Assay
The acetylcholinesterase assay was performed identically to the pseudocholinesterase assay with the following exceptions. The concentrations of the stock solutions of test compounds were 20 μM and 200 μM, instead of 2 μM and 20 μM, and the substrate solution was 156 mM S-acetylthiocholine iodide instead of S-butyrylthiocholine iodide. The lysed RBC's/test compound solution was incubated for 0 and 60 minutes instead of 0 and 30 minutes before being added to the cuvette containing the buffer/chromogen/substrate solution. From a plot of net absorbance versus time there was an initial period before the curve reached a steady linear rate. From this linear portion of the curve a rate of absorbance change per minute was calculated.
Each compound was tested for its ability to inhibit plasma pseudocholinesterase activity and acetylcholinesterase activity. Because of variation in the time points in the linear portion of the curve, inhibition values below 10-15% and higher than 85-90% are nearly indistinguishable from 0% and 100%, respectively.

pseudocholinesterase = test: Multiple dose study in hyperlipidemic guinea pigs: plasma pseudocholinesterase activity (Test Method 2, Example 29); format: in vivo, guinea pig; details: 2.5 mg/kg i.p. once daily
Excerpt: Male Hartley guinea pigs (Elm Hill Breeding Labs., Chelmsford, MA or Charles River, Wilmington, MA) was used in all experiments unless otherwise specified. The animals were maintained on a normal diet of rabbit pellets (Purina Rabbit Chow 5321, Ralston Purina, St. Louis, MO) and water containing 0.1% ascorbic acid ad libitum. For special studies in the hyperlipidemic guinea pig model, the animals were maintained on the high cholesterol diet described in this report and water containing 0.1% ascorbic acid ad libitum.
Individual animals were identified by ear and cage markings. The dose of drug or placebo was adjusted daily for changes in the weight of the guinea pigs. Blood samples were collected in EDTA Vacutainers by open chest cardiac puncture under carbon dioxide anesthesia from guinea pigs which had been fasted overnight. The animals were then sacrificed by CO2 inhalation. Blood samples were centrifuged at 2000 rpm for 15 min. in an IEC centrifuge (International Equipment Co., Boston, MA) with a 240 rotor for isolation of plasma. Lipoprotein analyses of plasma were carried out on the same day as the blood collection. Assays of pseudocholinesterase activity were carried out within a week of blood collection on plasma samples which had been stored at 4° C.
The assay method used was based on the procedure described in Ellman, G. L., K. D. Courtney, V. Andres & R. M. Featherstone, "A New and Rapid Colorimetric Determination of Acetylcholinesterase Activity", Biolchemical Pharmacology, Vol. 7 (1961), pp. 88-95. Reactions were carried out at 35° C. in pH 7.2 NaH2 PO4 50 mM buffer containing 5 mM butyrylthiocholine iodide (substrate) and 0.25 mM 5,5'-dithiobis-[2-nitrobenzoic acid] (chromogen). The rate of change of absorbance at 405 nm with time was monitored by means of a Cary 16 spectrophotometer (Varian Associates, Walnut Creek, CA) or a Beckman DU-8B spectrophotometer (Beckman Instruments, Inc., Palo Alto, CA). Corrections were made for non-enzymic hydrolysis of substrate.
Enzyme Buffer: 6.90 g (50 mmol) NaH2 PO4.H2 O+[…] (0.25 mmol) 5,5'-dithiobis-(2-nitrobenzoic acid). The reagents were dissolved in Milli-Q purified distilled water, titrated to pH 7.2 with 1N NaOH, and diluted to one liter with water.
Substrate: 0.2476 g (0.780 mmol) S-butyrylthiocholine iodide (BTC). The substrate was dissolved in 5 ml of Milli-Q purified distilled water. [BTC]=156 mM.
Into a 1-cm pathlength cuvette was placed 3.0 ml of enzyme buffer. At least 10 min. was allowed for temperature equilibration. A 100 μl aliquot of substrate was added to the cuvette, the solution was mixed and about 3 min. was allowed for determination of the non-enzymic rate of substrate hydrolysis before the enzymic reaction was initiated by addition of 25 μl of plasma. The increase in absorbance at 405 nm was measured vs. a blank containing enzyme buffer.
Into a 1-cm pathlength cuvette was placed 3.0 ml of enzyme buffer and 100 μl of substrate. The solution was mixed and about 10 min. was allowed for temperature equilibration. The reaction was initiated by addition of 25 μl of plasma. The increase in absorbance at 405 nm was measured vs. a blank containing enzyme buffer and substrate. No additional correction for non-enzymic substrate hydrolysis was necessary.
A 1:15 mixture of cholesterol:corn oil was prepared by adding 25 g of USP cholesterol (Sigma Chemical Company, St. Louis, MO) to 375 g of corn oil (Mazola, Best Foods, CPC International, Inc., Englewood Cliffs, NJ). The mixture was stirred, sonicated, and heated in a hot water bath until the cholesterol completely dissolved. It was necessary to keep the mixture warm (50°-60° C.) in order to prevent congealing.
Batches of feed were prepared by adding 160 g of the cholesterol-corn oil solution to 840 g of Purina Rabbit Chow 5321. The pellets and lipid mixture were thoroughly mixed in a 2-liter or 3-liter Erlenmeyer flask to ensure uniform coating of the pellets. The feed was then stored at room temperature until needed. […]

T1 sequence (P22303 other isoform, or with tags, fused parts or gaps): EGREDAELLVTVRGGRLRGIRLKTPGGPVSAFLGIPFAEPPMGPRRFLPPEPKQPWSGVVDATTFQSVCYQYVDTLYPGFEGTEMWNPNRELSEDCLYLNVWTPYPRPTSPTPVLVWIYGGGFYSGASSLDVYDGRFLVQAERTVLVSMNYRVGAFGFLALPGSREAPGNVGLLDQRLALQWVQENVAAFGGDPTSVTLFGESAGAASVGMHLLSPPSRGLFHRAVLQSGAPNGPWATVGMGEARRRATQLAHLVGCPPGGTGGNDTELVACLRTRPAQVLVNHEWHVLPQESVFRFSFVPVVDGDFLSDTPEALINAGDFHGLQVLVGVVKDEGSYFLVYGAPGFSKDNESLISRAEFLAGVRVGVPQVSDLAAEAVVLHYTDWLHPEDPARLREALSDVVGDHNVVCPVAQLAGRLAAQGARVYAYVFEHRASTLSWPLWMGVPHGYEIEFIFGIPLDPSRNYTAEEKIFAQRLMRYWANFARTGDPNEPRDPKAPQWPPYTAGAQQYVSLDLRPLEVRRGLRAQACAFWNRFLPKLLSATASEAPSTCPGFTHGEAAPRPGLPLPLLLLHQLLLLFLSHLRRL

NP(N)(=O)NC(=O)c1ccc(F)cc1 [Test Compound 4, N-(diaminophosphinyl)-4-fluorobenzamide]
inhibition at 10 µM (acetylcholinesterase; 10 μM): 12.4% | inhibition at 100 µM (acetylcholinesterase; 100 μM): 52.3% | % PChE Inhibition (Compared to Control) (pseudocholinesterase; day 1): 51.6% | % PChE Inhibition (Compared to Control) (pseudocholinesterase; day 3): 45.0% | % PChE Inhibition (Compared to Control) (pseudocholinesterase; day 7): 58.6% | % PChE Inhibition (Compared to Control) (pseudocholinesterase; day 10): 65.0% | % PChE Inhibition (Compared to Control) (pseudocholinesterase; day 14): 69.0% | plasma pseudocholinesterase activity vs saline-treated control (pseudocholinesterase; high cholesterol diet, result in words): substantially lower plasma pseudocholinesterase activity
